Earlier results as cited in EP4197526A1, “HYDROGEL FORMULATION COMPRISING ZEBULARINE AND RETIONIC ACID” (Uniwersytet Gdanski, priority 2021, dated 2023).
Values joined by “and” are separate entries in the source; they are usually repeats but may differ in a detail not shown here. Identical values can stand only once.

Conditions: literature data

| solubility in water | SMILES |
| --- | --- |
| up to 50 mg/ml | O=c1ncccn1[C@@H]1O[C@H](CO)[C@@H](O)[C@H]1O [zebularine] |
| 0.000063 mg/ml and 0.21 microM | CC1=C(/C=C/C(C)=C/C=C/C(C)=C/C(=O)O)C(C)(C)CCC1 [retinoic acid] |
